PubChem BioAssay (NCI)
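Briefly, cells in 96-well plates were exposed to five compound concentrations for 48 h, and endpoints were estimated by linear interpolation. TGI denotes the concentration required for complete inhibition of growth.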

What was measured:
Test in all cases: growth of human tumour cells (NCI), 48 h
786-0 renal = test system: 786-0 renal
A498 renal = test system: A498 renal
ACHN renal = test system: ACHN renal
BT-549 breast = test system: BT-549 breast
COLO 205 colon = test system: COLO 205 colon
KM12 colon = test system: KM12 colon
MALME-3M melanoma = test system: MALME-3M melanoma
NCI-H23 lung = test system: NCI-H23 lung
PC-3 prostate = test system: PC-3 prostate
SF-268 CNS = test system: SF-268 CNS
SF-539 CNS = test system: SF-539 CNS
SK-MEL-2 melanoma = test system: SK-MEL-2 melanoma
SK-OV-3 ovarian = test system: SK-OV-3 ovarian
SN12C renal = test system: SN12C renal
SR leukemia = test system: SR leukemia
T-47D breast = test system: T-47D breast
UACC-257 melanoma = test system: UACC-257 melanoma
M14 melanoma = test system: M14 melanoma

SMILES: O=C(Nc1ccccc1)n1[nH]c(=O)n(-c2ccccc2)c1=O
- TGI (786-0 renal): > 100 µM
- TGI (A498 renal): > 100 µM
- TGI (ACHN renal): > 100 µM
- TGI (BT-549 breast): > 100 µM
- TGI (COLO 205 colon): > 100 µM
- TGI (KM12 colon): > 100 µM
- TGI (MALME-3M melanoma): > 100 µM
- TGI (NCI-H23 lung): > 100 µM
- TGI (PC-3 prostate): > 100 µM
- TGI (SF-268 CNS): > 100 µM
- TGI (SF-539 CNS): > 100 µM
- TGI (SK-MEL-2 melanoma): > 100 µM
- TGI (SK-OV-3 ovarian): > 100 µM
- TGI (SN12C renal): > 100 µM
- TGI (SR leukemia): > 100 µM
- TGI (T-47D breast): > 100 µM
- TGI (UACC-257 melanoma): > 100 µM

SMILES: CN(C)CCCNc1c(C#N)[n+]([O-])c2cc(Cl)ccc2[n+]1[O-]
- TGI (786-0 renal): > 100 µM
- TGI (A498 renal): > 52.4 µM
- TGI (ACHN renal): 22.2 µM
- TGI (BT-549 breast): 31.1 µM
- TGI (COLO 205 colon): 14.6 µM
- TGI (KM12 colon): 26.9 µM
- TGI (M14 melanoma): 37.6 µM
- TGI (MALME-3M melanoma): 17.4 µM
- TGI (NCI-H23 lung): 23.5 µM
- TGI (PC-3 prostate): > 41.3 µM
- TGI (SF-268 CNS): > 64.4 µM
- TGI (SF-539 CNS): 47.4 µM
- TGI (SK-MEL-2 melanoma): 36.4 µM
- TGI (SK-OV-3 ovarian): > 67.1 µM
- TGI (SN12C renal): 53.3 µM
- TGI (SR leukemia): 5.28 µM
- TGI (T-47D breast): 40.7 µM
- TGI (UACC-257 melanoma): > 50 µM

SMILES: OC1[C@H](O)CN(OCc2ccccc2)C[C@@H]1O (some centres undefined)
- TGI (786-0 renal): > 100 µM
- TGI (A498 renal): > 100 µM
- TGI (ACHN renal): > 100 µM
- TGI (BT-549 breast): > 100 µM
- TGI (COLO 205 colon): > 100 µM
- TGI (KM12 colon): > 100 µM
- TGI (M14 melanoma): > 100 µM
- TGI (MALME-3M melanoma): > 100 µM
- TGI (NCI-H23 lung): > 100 µM
- TGI (PC-3 prostate): > 100 µM
- TGI (SF-268 CNS): > 100 µM
- TGI (SF-539 CNS): > 100 µM
- TGI (SK-MEL-2 melanoma): > 100 µM
- TGI (SN12C renal): > 100 µM
- TGI (SR leukemia): > 100 µM
- TGI (T-47D breast): > 100 µM
- TGI (UACC-257 melanoma): > 100 µM

SMILES: CC1=NN(C(=O)CC(=O)Nc2ccc(C)cc2)C(=O)C1N=Nc1ccc(S(=O)(=O)c2ccc(N=NC3C(=O)N(C(=O)CC(=O)Nc4ccc(C)cc4)N=C3C)cc2)cc1 (centres undefined)
- TGI (786-0 renal): > 100 µM
- TGI (A498 renal): > 100 µM
- TGI (ACHN renal): > 100 µM
- TGI (BT-549 breast): > 100 µM
- TGI (COLO 205 colon): > 100 µM
- TGI (KM12 colon): > 100 µM
- TGI (M14 melanoma): > 100 µM
- TGI (MALME-3M melanoma): > 100 µM
- TGI (NCI-H23 lung): > 100 µM
- TGI (PC-3 prostate): > 100 µM
- TGI (SF-268 CNS): > 100 µM
- TGI (SF-539 CNS): > 100 µM
- TGI (SK-MEL-2 melanoma): > 100 µM
- TGI (SK-OV-3 ovarian): > 100 µM
- TGI (SN12C renal): > 100 µM
- TGI (SR leukemia): > 100 µM
- TGI (T-47D breast): > 100 µM
- TGI (UACC-257 melanoma): > 100 µM

SMILES: CCN(C(C)=O)c1cnc(/C=N/NC(N)=S)c2ccccc12
- TGI (786-0 renal): > 26.6 µM
- TGI (A498 renal): > 91.6 µM
- TGI (ACHN renal): > 22.4 µM
- TGI (BT-549 breast): > 31.1 µM
- TGI (COLO 205 colon): > 100 µM
- TGI (KM12 colon): > 100 µM
- TGI (M14 melanoma): > 30.7 µM
- TGI (MALME-3M melanoma): > 100 µM
- TGI (NCI-H23 lung): > 100 µM
- TGI (PC-3 prostate): > 100 µM
- TGI (SF-268 CNS): > 100 µM
- TGI (SF-539 CNS): 13.6 µM
- TGI (SK-MEL-2 melanoma): > 100 µM
- TGI (SK-OV-3 ovarian): > 100 µM
- TGI (SN12C renal): > 57.6 µM
- TGI (SR leukemia): > 65.8 µM
- TGI (T-47D breast): > 100 µM
- TGI (UACC-257 melanoma): > 100 µM

SMILES: CCOc1cc2c(cc1O)CC[C@@H]1[C@@H]2CC[C@]2(C)C(N)CC[C@@H]12 (some centres undefined)
- TGI (786-0 renal): 13.8 µM
- TGI (A498 renal): 18.7 µM
- TGI (ACHN renal): 26.2 µM
- TGI (BT-549 breast): 30.8 µM
- TGI (COLO 205 colon): 17.3 µM
- TGI (KM12 colon): 8.03 µM
- TGI (M14 melanoma): 25.2 µM
- TGI (MALME-3M melanoma): 28.2 µM
- TGI (NCI-H23 lung): 16.7 µM
- TGI (PC-3 prostate): 13.7 µM
- TGI (SF-268 CNS): 23.8 µM
- TGI (SF-539 CNS): 9.25 µM
- TGI (SK-MEL-2 melanoma): 21.3 µM
- TGI (SK-OV-3 ovarian): 17.6 µM
- TGI (SN12C renal): 20.5 µM
- TGI (SR leukemia): 7 µM
- TGI (T-47D breast): 25.3 µM
- TGI (UACC-257 melanoma): 16.3 µM

SMILES: O=C(NNCc1ccco1)c1cc2ccccc2[nH]1
- TGI (786-0 renal): > 100 µM
- TGI (A498 renal): > 100 µM
- TGI (ACHN renal): > 100 µM
- TGI (BT-549 breast): > 90.5 µM
- TGI (COLO 205 colon): > 100 µM
- TGI (KM12 colon): > 100 µM
- TGI (M14 melanoma): > 100 µM
- TGI (MALME-3M melanoma): > 100 µM
- TGI (NCI-H23 lung): > 100 µM
- TGI (PC-3 prostate): > 100 µM
- TGI (SF-268 CNS): > 100 µM
- TGI (SF-539 CNS): > 84.4 µM
- TGI (SK-MEL-2 melanoma): > 100 µM
- TGI (SK-OV-3 ovarian): > 100 µM
- TGI (SN12C renal): > 100 µM
- TGI (SR leukemia): > 100 µM
- TGI (T-47D breast): > 100 µM
- TGI (UACC-257 melanoma): > 100 µM

SMILES: O=P1(c2ccccc2)C(c2ccccc2)=CC=C1c1ccccc1
- TGI (786-0 renal): > 100 µM
- TGI (A498 renal): > 100 µM
- TGI (ACHN renal): > 100 µM
- TGI (BT-549 breast): > 100 µM
- TGI (COLO 205 colon): 46.1 µM
- TGI (KM12 colon): 50.1 µM
- TGI (M14 melanoma): > 100 µM
- TGI (MALME-3M melanoma): > 100 µM
- TGI (NCI-H23 lung): > 100 µM
- TGI (PC-3 prostate): 62.8 µM
- TGI (SF-268 CNS): > 100 µM
- TGI (SF-539 CNS): > 100 µM
- TGI (SK-MEL-2 melanoma): 40.9 µM
- TGI (SK-OV-3 ovarian): > 100 µM
- TGI (SN12C renal): > 100 µM
- TGI (SR leukemia): 52.7 µM
- TGI (T-47D breast): > 100 µM
- TGI (UACC-257 melanoma): > 100 µM

SMILES: CC1(c2cccc(Cl)c2)CC(c2cccc(Cl)c2)=C(C#N)C(=C(C#N)C#N)N1 (centres undefined)
- TGI (786-0 renal): 30.1 µM
- TGI (A498 renal): 39.3 µM
- TGI (ACHN renal): 31.9 µM
- TGI (BT-549 breast): 51.2 µM
- TGI (COLO 205 colon): 29.9 µM
- TGI (KM12 colon): 39 µM
- TGI (M14 melanoma): 31.9 µM
- TGI (MALME-3M melanoma): 35.2 µM
- TGI (NCI-H23 lung): 39 µM
- TGI (PC-3 prostate): 34.3 µM
- TGI (SF-268 CNS): 20.1 µM
- TGI (SF-539 CNS): 37.2 µM
- TGI (SK-MEL-2 melanoma): 64.8 µM
- TGI (SK-OV-3 ovarian): 32.8 µM
- TGI (SN12C renal): 36.4 µM
- TGI (SR leukemia): 65.3 µM
- TGI (T-47D breast): 38 µM
- TGI (UACC-257 melanoma): 42 µM

SMILES: C=CC[C@@]1([C@H](C=C)COCc2ccc(OC)cc2)CC[C@]2(C)OC(C)(C)[C@@H](c3ccccc3)N2C1=S
- TGI (786-0 renal): > 100 µM
- TGI (A498 renal): > 100 µM
- TGI (ACHN renal): > 100 µM
- TGI (BT-549 breast): > 100 µM
- TGI (COLO 205 colon): 41.6 µM
- TGI (KM12 colon): > 100 µM
- TGI (M14 melanoma): > 100 µM
- TGI (MALME-3M melanoma): > 100 µM
- TGI (NCI-H23 lung): > 100 µM
- TGI (PC-3 prostate): > 100 µM
- TGI (SF-268 CNS): > 100 µM
- TGI (SF-539 CNS): > 100 µM
- TGI (SK-MEL-2 melanoma): 62.3 µM
- TGI (SK-OV-3 ovarian): > 100 µM
- TGI (SN12C renal): > 100 µM
- TGI (SR leukemia): > 100 µM
- TGI (T-47D breast): > 100 µM
- TGI (UACC-257 melanoma): > 100 µM

SMILES: N#Cc1ccc(C(=O)/C=C/c2ccc(O)c(O)c2)cc1
- TGI (786-0 renal): > 52.9 µM
- TGI (A498 renal): 31.9 µM
- TGI (ACHN renal): 31.8 µM
- TGI (BT-549 breast): 25.3 µM
- TGI (COLO 205 colon): 30.5 µM
- TGI (KM12 colon): 30.5 µM
- TGI (M14 melanoma): 32.8 µM
- TGI (MALME-3M melanoma): 29.3 µM
- TGI (NCI-H23 lung): 33 µM
- TGI (PC-3 prostate): 30 µM
- TGI (SF-268 CNS): 31.1 µM
- TGI (SF-539 CNS): 29.7 µM
- TGI (SK-MEL-2 melanoma): 33.8 µM
- TGI (SK-OV-3 ovarian): > 57.7 µM
- TGI (SN12C renal): 28.9 µM
- TGI (SR leukemia): 6.27 µM
- TGI (T-47D breast): 31.2 µM
- TGI (UACC-257 melanoma): 30 µM

SMILES: Cc1ccc(C2SC(N)=Nc3c2c(C)nn3C(=O)c2ccccc2O)cc1 (centres undefined)
- TGI (786-0 renal): > 10 µM
- TGI (A498 renal): > 10 µM
- TGI (ACHN renal): > 10 µM
- TGI (BT-549 breast): > 10 µM
- TGI (COLO 205 colon): > 10 µM
- TGI (KM12 colon): > 10 µM
- TGI (M14 melanoma): > 10 µM
- TGI (MALME-3M melanoma): > 10 µM
- TGI (NCI-H23 lung): > 10 µM
- TGI (PC-3 prostate): > 10 µM
- TGI (SF-268 CNS): > 10 µM
- TGI (SF-539 CNS): > 10 µM
- TGI (SK-MEL-2 melanoma): > 10 µM
- TGI (SK-OV-3 ovarian): > 10 µM
- TGI (SN12C renal): > 10 µM
- TGI (SR leukemia): > 10 µM
- TGI (T-47D breast): > 10 µM
- TGI (UACC-257 melanoma): > 10 µM
